Where “and” joins values, the source holds several entries; their conditions need not be identical. Identical values can stand only once. Like-named read-outs stand apart in the source and are kept apart here. Marks after values point to notes of the source that are not given here.
How the values were obtained:
[1] = system: human non-small cell lung cancer cells (H1299); assay: MTT Assay for Determining Toxicity, H1299; assay type: cell-based; conditions: read-out: Viability IC50 H1299
[2] = system: human brain endothelial cells (HBEC); assay: MTT Assay for Determining Toxicity, HBEC; assay type: cell-based; conditions: Endothelial cell, read-out: Viability IC50 HBEC
PTP1B = molecular target: T1, PTP1B (Homo sapiens, UniProt P18031); assay: PTP1B Inhibition Assay: IC50 Determinations; assay type: biochemical
T1 sequence (P18031 1-435): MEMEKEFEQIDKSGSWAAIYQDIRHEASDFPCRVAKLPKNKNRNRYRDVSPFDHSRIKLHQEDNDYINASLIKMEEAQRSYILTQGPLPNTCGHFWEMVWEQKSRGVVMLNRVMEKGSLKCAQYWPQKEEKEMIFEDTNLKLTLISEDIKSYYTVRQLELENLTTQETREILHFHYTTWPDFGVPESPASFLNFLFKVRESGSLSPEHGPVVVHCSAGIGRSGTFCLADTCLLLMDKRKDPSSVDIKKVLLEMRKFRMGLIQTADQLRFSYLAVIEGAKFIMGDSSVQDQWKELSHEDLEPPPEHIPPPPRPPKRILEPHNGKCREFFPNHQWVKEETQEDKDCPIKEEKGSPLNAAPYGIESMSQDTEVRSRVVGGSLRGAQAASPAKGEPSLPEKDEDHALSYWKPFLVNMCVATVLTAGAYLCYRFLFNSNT

MEF PTEN null = assay: Migration Assay, MEF PTEN null; assay type: cell-based, mouse
[3] = system: human prostate cancer cells (PC-3); assay: MTT Assay for Determining Toxicity, PC-3; assay type: cell-based; conditions: read-out: Viability IC50 PC-3
PTEN [4] = molecular target: T2, PTEN (Homo sapiens, UniProt P60484); assay: PTEN Inhibition Assay: IC50 Determinations; assay type: biochemical
T2 sequence (P60484 whole entry, species assumed, the tested form may be a part): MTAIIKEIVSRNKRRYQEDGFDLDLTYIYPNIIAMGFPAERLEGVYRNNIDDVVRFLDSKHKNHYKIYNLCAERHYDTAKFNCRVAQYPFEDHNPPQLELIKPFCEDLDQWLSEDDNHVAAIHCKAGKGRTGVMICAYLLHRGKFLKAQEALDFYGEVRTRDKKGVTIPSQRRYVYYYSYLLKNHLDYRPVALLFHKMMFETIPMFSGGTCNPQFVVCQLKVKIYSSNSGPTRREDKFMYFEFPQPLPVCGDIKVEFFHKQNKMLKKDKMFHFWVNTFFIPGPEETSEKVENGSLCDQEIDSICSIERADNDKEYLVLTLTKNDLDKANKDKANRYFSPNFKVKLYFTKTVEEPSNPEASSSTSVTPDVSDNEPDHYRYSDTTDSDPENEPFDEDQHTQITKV

GST-PTEN fusion protein = GST-PTEN fusion protein (Homo sapiens, UniProt P60484); assay: Immobilized PTEN; assay type: biochemical; conditions: PLV substrate
Sequence of GST-PTEN fusion protein (P60484 whole entry, the tested form may be a part): as the sequence (P60484 whole entry, species assumed, the tested form may be a part) above
Procedure: In the PTEN inhibition assay, to exclude the possibility that PTEN inhibitor candidates interact with the unilameller PIP3 lipid vesicle (PLV) to block PTEN and artificially mimic PTEN inhibition, PTEN was bound to a solid support and treated with inhibitor, the inhibitor washed away and then the capability of the bound PTEN to dephosphorylate PLV was determined. […] The gel was centrifuged, washed 3 times and centrifuged again. […] Then a 100 ul portion of malachite green buffer (Upstate, Charlottesville, Va.) was added to develop the color in the dark at room temperature. […] Optical density measurements were converted to nanomoles of phosphate detected using a phosphate-malachite green standard calibration curve.

MEF PTEN wt = assay: Migration Assay, MEF PTEN wt; assay type: cell-based, mouse
[5] = system: HBEC (Human Brain Endothelial Cells); assay: Wound Healing Assay; assay type: cell-based
PTEN [6] = molecular target: T2, PTEN; assay: PTEN Inhibition Assay: General Screening; assay type: biochemical
U87MG PTEN wt = assay type: cell-based
U87MG PTEN null = assay type: cell-based
mouse aortic ring = assay: In Vitro Aortic Ring Angiogenesis Assay; assay type: cell-based; conditions: 120 h; for activity at 40 µM: 5 days
RAC1-GTP = assay type: cell-based, mouse
[7] = NCI-H1299, MTT, serum-free, 2 hours with compound
[8] = MTT, serum-free, 2 hours with compound
[9] = relative to no treatment control
[10] = 250 uM, Table 27 isatins, read-out: % Inhibition @250 uM
[11] = read-out: Branch (% of control)
[12] = read-out: % Inhibition @ 250 uM

## O=C1C(=O)c2cccnc2-c2ncccc21 [SF1720-000, 1,10-phenanthroline-5,6-dione]
[1]; [7]
  IC50: < 1 µM
[2]; [8]
  IC50: 1 µM
PTP1B; Table 29, read-out: PTP1B IC50
  IC50: > 250 µM
MEF PTEN null; 125 uM, Table 4
  migration number, Average: 36.50
MEF PTEN null; 250 uM, Table 4
  migration number, Average: 37.30
[3]; [8]
  IC50: 7 µM
PTEN [4]; Table 1, read-out: PTEN Inhibition IC50
  IC50: 5 µM
PTEN [4]; Table 25, read-out: PTEN IC50
  IC50: 5 µM
PTEN [4]; Table 29, read-out: PTEN IC50
  IC50: 5 µM
PTEN [4]; ratio of IC50's
  selective inhibition for PTEN over PTP1B: more than 50 fold
GST-PTEN fusion protein; PTEN in solution
  inorganic phosphate detected, oriPTEN + 1720, Average: 0.1028 nmol
GST-PTEN fusion protein; PTEN in solution, single determinations
  inorganic phosphate detected, oriPTEN + 1720: 0.0995 nmol and 0.106 nmol
GST-PTEN fusion protein; immobilized PTEN pretreated 1 hour, washed
  inorganic phosphate detected, PTEN gel/1720 bound, Average: 0.1142 nmol
GST-PTEN fusion protein; immobilized PTEN pretreated 1 hour, washed, single determinations
  inorganic phosphate detected, PTEN gel/1720 bound: 0.1191 nmol and 0.1093 nmol
MEF PTEN wt; 125 uM, Table 4
  migration number, Average: 18.20
MEF PTEN wt; 250 uM, Table 4
  migration number, Average: 11.90
[5]; 10 nM, 2 hrs
  distance the cells have grown out: 0.03* millimeters
[5]; 10 nM, 4 hrs
  distance the cells have grown out: 0.04667 millimeters
[5]; 10 nM, 6 hrs
  distance the cells have grown out: 0.08* millimeters
[5]; 10 nM, 24 hrs
  distance the cells have grown out: 0.155* millimeters
[5]; 50 nM, 2 hrs
  distance the cells have grown out: 0.03667 millimeters
[5]; 50 nM, 4 hrs
  distance the cells have grown out: 0.04667 millimeters
[5]; 50 nM, 6 hrs
  distance the cells have grown out: 0.05667* millimeters
[5]; 50 nM, 24 hrs
  distance the cells have grown out: 0.1583* millimeters
[5]; 0.111 uM, 2 hrs
  distance the wound edge had moved forward: 0.04333 mm
[5]; 0.111 uM, 4 hrs
  distance the wound edge had moved forward: 0.05667 mm
[5]; 0.111 uM, 6 hrs
  distance the wound edge had moved forward: 0.06833 mm
[5]; 250 nM, 2 hrs
  distance the cells have grown out: 0.025 millimeters
[5]; 250 nM, 4 hrs
  distance the cells have grown out: 0.03667 millimeters
[5]; 250 nM, 6 hrs
  distance the cells have grown out: 0.05167* millimeters
[5]; 250 nM, 24 hrs
  distance the cells have grown out: 0.1117* millimeters
[5]; 0.333 uM, 2 hrs
  distance the wound edge had moved forward: 0.05 mm
[5]; 0.333 uM, 4 hrs
  distance the wound edge had moved forward: 0.085 mm
[5]; 0.333 uM, 6 hrs
  distance the wound edge had moved forward: 0.1333 mm
[5]; [9]
  HBEC migration across the wound, in words: migrate faster

## O=C1Nc2ccc([N+](=O)[O-])cc2C1=O [SF1770-000, 5-nitroindoline-2,3-dione]
[1]; [7]
  IC50: 695 µM
[2]; [8]
  IC50: > 1000 µM
PTP1B; Table 29, read-out: PTP1B IC50
  IC50: 16.3 µM
MEF PTEN null; 125 uM, Table 4
  migration number, Average: 42.30
MEF PTEN null; 250 uM, Table 4
  migration number, Average: 41.50
[3]; [8]
  IC50: > 1000 µM
PTEN [6]; [10]
  inhibition at 250 µM: 99.4%
PTEN [4]; Table 29, read-out: PTEN IC50
  IC50: 2.2 µM
MEF PTEN wt; 125 uM, Table 4
  migration number, Average: 22.90
MEF PTEN wt; 250 uM, Table 4
  migration number, Average: 22.40
[5]; 10 nM, 2 hrs
  distance the cells have grown out: 0.02667* millimeters
[5]; 10 nM, 4 hrs
  distance the cells have grown out: 0.045* millimeters
[5]; 10 nM, 6 hrs
  distance the cells have grown out: 0.065* millimeters
[5]; 10 nM, 24 hrs
  distance the cells have grown out: 0.1483* millimeters
[5]; 50 nM, 2 hrs
  distance the cells have grown out: 0.05 millimeters
[5]; 50 nM, 4 hrs
  distance the cells have grown out: 0.06 millimeters
[5]; 50 nM, 6 hrs
  distance the cells have grown out: 0.075 millimeters
[5]; 50 nM, 24 hrs
  distance the cells have grown out: 0.2233* millimeters
[5]; 250 nM, 2 hrs
  distance the cells have grown out: 0.04 millimeters
[5]; 250 nM, 4 hrs
  distance the cells have grown out: 0.05167 millimeters
[5]; 250 nM, 6 hrs
  distance the cells have grown out: 0.06667 millimeters
[5]; 250 nM, 24 hrs
  distance the cells have grown out: 0.2017* millimeters
[5]; 1000 nM, 2 hrs
  distance the cells have grown out: 0.04 millimeters
[5]; 1000 nM, 4 hrs
  distance the cells have grown out: 0.06167 millimeters
[5]; 1000 nM, 6 hrs
  distance the cells have grown out: 0.07667 millimeters
[5]; 1000 nM, 24 hrs
  distance the cells have grown out: 0.2417 millimeters
[5]; [9]
  HBEC migration across the wound, in words: migrate faster

## CC(C)(C)C(=O)Nc1ccc2c(c1)C(=O)C(=O)c1ccccc1-2 [SF1670-000, N-(9,10-Dioxo-9,10-dihydro-phenanthren-2-yl)-2,2-dimethyl-propionamide]
U87MG PTEN wt
  concentration of maximal induction of migration: 30 nM
[1]; NCI-H1299, 2 h
  IC50: 10 µM
[2]; 2 h
  IC50: 5 µM
PTP1B
  IC50: 17 µM
MEF PTEN null
  migration number, Average: 47.20 and 49.30 and 49.90 and 47.60 and 45.90
U87MG PTEN null
  migration number, Average: 60.90 and 57.20
Mouse aortic ring; [11]
  activity at 5 µM: 126 to 166%
Mouse aortic ring; read-out: Stem (% of control)
  activity at 5 µM: 107 to 196%
[3]; 2 h
  IC50: 44 µM
PTEN [6]; [12]
  inhibition at 250 µM: 100%
PTEN [4]
  IC50: 2 µM
RAC1-GTP
  integrin induced activation of RAC to its GTP bound state: augmented integrin induced activation of RAC
MEF PTEN wt
  migration number, Average: 16.00 and 22.60 and 31.20 and 28.70 and 26.80
[5]
  HBEC migration across the wound, in words: migrate faster

## Cc1ccc(C(=O)Nc2ccc3c(c2)C(=O)C(=O)c2ccccc2-3)cc1 [SF1779-000]
PTP1B
  IC50: 0.233 µM
MEF PTEN null
  migration number, Average: 47.30 and 43.50
Mouse aortic ring; [11]
  activity at 5 µM: 112 to 138%
Mouse aortic ring; read-out: Stem (% of control)
  activity at 5 µM: 92 to 125%
PTEN [6]; [12]
  inhibition at 250 µM: 99.8%
PTEN [4]
  IC50: 0.342 µM
MEF PTEN wt
  migration number, Average: 20.60 and 18.00

## O=c1cc(N2CCOCC2)oc2c(-c3ccccc3)cccc12 [LY294002, reference compound]
Mouse aortic ring; [11]
  activity at 40 µM: 0 to 0.8%
Mouse aortic ring; read-out: Stem (% of control)
  activity at 40 µM: 0 to 2%

## COc1ccccc1OCC(=O)Nc1ccc2c(c1)C(=O)C(=O)c1ccccc1-2 [SF1787-000]
PTP1B; Table 29, read-out: PTP1B IC50
  IC50: < 1 µM
PTEN [6]; [12]
  inhibition at 250 µM: 94.7%
PTEN [4]; Table 29, read-out: PTEN IC50
  IC50: 0.548 µM

## O=C(O)C(=O)Nc1ccc2c(c1)C(=O)C(=O)c1ccccc1-2 [SF1806-000]
PTP1B
  IC50: 1 to 10 µM
PTEN [6]; [12]
  inhibition at 250 µM: 98.1%
PTEN [4]
  IC50: 12.1 µM

## O=C1Nc2ccc(I)cc2C1=O [SF1819-000]
PTP1B; Table 29, read-out: PTP1B IC50
  IC50: < 10 µM
PTEN [6]; [10]
  inhibition at 250 µM: 96%
PTEN [4]; Table 29, read-out: PTEN IC50
  IC50: 33.6 µM

## O=C1Nc2ccc(Br)cc2C1O (stereo not shown) [SF1818-000]
PTP1B; Table 29, read-out: PTP1B IC50
  IC50: < 10 µM
PTEN [6]; [10]
  inhibition at 250 µM: 97.8%
PTEN [4]; Table 29, read-out: PTEN IC50
  IC50: 31.7 µM

## O=C(COc1ccc(Cl)cc1)Nc1ccc2c(c1)C(=O)C(=O)c1ccccc1-2 [SF1790-000]
PTP1B
  IC50: 1 to 10 µM
PTEN [6]; [12]
  inhibition at 250 µM: 99.2%
PTEN [4]
  IC50: 2.6 µM
